Read-outs that look alike come from different tables or passages of the source.
What was measured:
[1] = target: T1, ovine membrane progesterone receptor alpha (mPRα) (Ovis aries, UniProt A0ACI6Q1G6); assay: radioligand competition against 3H-progesterone on mPRα-CHO membranes; format: binding
T1 construct: gene PAQR7; ovine mPRα expressed in CHO cells; digitonin-treated crude membrane fractions
T1 sequence (A0ACI6Q1G6 1-350): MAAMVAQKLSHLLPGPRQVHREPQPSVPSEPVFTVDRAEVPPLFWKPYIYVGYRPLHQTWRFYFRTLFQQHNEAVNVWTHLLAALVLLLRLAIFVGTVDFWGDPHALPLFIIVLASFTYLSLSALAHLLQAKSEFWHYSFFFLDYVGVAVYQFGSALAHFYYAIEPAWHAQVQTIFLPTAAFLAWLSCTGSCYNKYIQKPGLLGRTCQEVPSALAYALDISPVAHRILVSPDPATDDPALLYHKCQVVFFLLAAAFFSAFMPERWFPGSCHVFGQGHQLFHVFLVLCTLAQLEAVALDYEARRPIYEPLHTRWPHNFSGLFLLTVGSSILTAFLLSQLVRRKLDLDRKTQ

[2] = target: T1, ovine membrane progesterone receptor alpha (mPRα); assay: 3H-progesterone saturation binding on membranes of stable mPRα-CHO cells (also competition, IC50 =[…])

`CC(=O)[C@@]1(O)CC[C@H]2[C@@H]3CCC4=CC(=O)CC[C@]4(C)[C@H]3CC[C@@]21C` [17-OH-P4, 17α-hydroxyprogesterone] was tested, and the IC50 ([1]; read-out: IC50) was 735 nM.

`C[C@H](O)[C@H]1CC[C@H]2[C@@H]3CCC4=CC(=O)CC[C@]4(C)[C@H]3CC[C@]12C` [20-OH-P4, 20α-hydroxyprogesterone] gave an IC50 [1] of 298 nM.

In the case of `CC(=O)[C@H]1CC[C@H]2[C@@H]3CCC4=CC(=O)CC[C@]4(C)[C@H]3CC[C@]12C` [P4, progesterone], the Kd [2] is reported as 122 nM.

— PMC2685384, “Binding characteristics of the ovine membrane progesterone receptor alpha and expression of the receptor during the estrous cycle” (Reproductive Biology and Endocrinology : RB&E, 2009)
